Assay results reported in the CheMixHub viscosity set.

Assay: xn = mol fraction of the nth substance listed
Settings: 101 kPa

C=COCCCC + CCOC(=O)c1ccccc1
viscosity [mPa·s]
Settings	x2 = 0.0939	x2 = 0.1857	x2 = 0.2804	x2 = 0.3768	x2 = 0.4748	x2 = 0.557	x2 = 0.6781	x2 = 0.7812	x2 = 0.8898
303.15 K	0.438	0.499	0.573	0.663	0.769	0.877	1.061	1.25	1.482
308.15 K	0.425	0.482	0.55	0.633	0.729	0.827	0.995	1.163	1.372
313.15 K	0.404	0.458	0.519	0.592	0.678	0.762	0.907	1.054	1.231

CCCCCCCCCCCCCC + COC(=O)c1ccccc1
Settings	viscosity [mPa·s]
298.15 K, x1 = 0.0359	1.787
298.15 K, x1 = 0.0603	1.763
298.15 K, x1 = 0.0869	1.742
298.15 K, x1 = 0.114	1.723
298.15 K, x1 = 0.1429	1.706
298.15 K, x1 = 0.1751	1.695
298.15 K, x1 = 0.2075	1.686
298.15 K, x1 = 0.2786	1.675
298.15 K, x1 = 0.3166	1.672
298.15 K, x1 = 0.3592	1.673
298.15 K, x1 = 0.4082	1.68
298.15 K, x1 = 0.4539	1.688
298.15 K, x1 = 0.5114	1.7
298.15 K, x1 = 0.5687	1.718
298.15 K, x1 = 0.6228	1.743
298.15 K, x1 = 0.6938	1.782
298.15 K, x1 = 0.7735	1.842
298.15 K, x1 = 0.8501	1.905
308.15 K, x1 = 0.0334	1.486
308.15 K, x1 = 0.0663	1.471
308.15 K, x1 = 0.0869	1.464
308.15 K, x1 = 0.1156	1.452
308.15 K, x1 = 0.1423	1.444
308.15 K, x1 = 0.1737	1.436
308.15 K, x1 = 0.2082	1.428
308.15 K, x1 = 0.2405	1.422
308.15 K, x1 = 0.2806	1.418
308.15 K, x1 = 0.3218	1.415
308.15 K, x1 = 0.3558	1.415
308.15 K, x1 = 0.4082	1.42
308.15 K, x1 = 0.4482	1.426
308.15 K, x1 = 0.5073	1.438
308.15 K, x1 = 0.5627	1.455
308.15 K, x1 = 0.62	1.478
308.15 K, x1 = 0.6846	1.508
308.15 K, x1 = 0.7661	1.553
308.15 K, x1 = 0.8624	1.613
318.15 K, x1 = 0.0194	1.263
318.15 K, x1 = 0.0462	1.25
318.15 K, x1 = 0.071	1.242
318.15 K, x1 = 0.1011	1.231
318.15 K, x1 = 0.1287	1.223
318.15 K, x1 = 0.1619	1.213
318.15 K, x1 = 0.193	1.205
318.15 K, x1 = 0.2311	1.198
318.15 K, x1 = 0.267	1.193
318.15 K, x1 = 0.3111	1.189
318.15 K, x1 = 0.3471	1.186
318.15 K, x1 = 0.3979	1.187
318.15 K, x1 = 0.4448	1.189
318.15 K, x1 = 0.5017	1.196
318.15 K, x1 = 0.5526	1.206
318.15 K, x1 = 0.6171	1.222
318.15 K, x1 = 0.6828	1.244
318.15 K, x1 = 0.7602	1.276
318.15 K, x1 = 0.8353	1.314
